Laboratory results reported in ChEMBL document CHEMBL5543168, “Discovery of Urea Derivatives of Celastrol as Selective Peroxiredoxin 1 Inhibitors against Colorectal Cancer Cells” (J Med Chem, 2024).

Columns and labels:
[1] = tested on: SW-620; experiment: Induction of cell cycle arrest at S phase in human SW620 cells at 1 uM incubated for 24 hrs by PI staining based flow cytometry (reference value: 59.9 %); type: functional
[2] = Acute toxicity in C57BL/[…] 6J mouse assessed as animal death at 20 mg/kg, ip measured for 2 weeks; type: organism-based; details: in vivo, 336 h

Compound: COC(=O)C1(NC(=O)N[C@]2(C)CC[C@]3(C)CC[C@]4(C)C5=CC=C6C(=CC(=O)C(O)=C6C)[C@]5(C)CC[C@@]4(C)[C@@H]3C2)CCC1
- Activity [1]: 42.7%
- Activity [2]: Non-Toxic
